Measured values reported in patent US20240327408A1, “COMPOUNDS CONTAINING TETRAHYDRONAPHTHYRIDINONE OR TETRAHYDROPYRIDOPYRIMIDINONE SKELETON, PREPARATION METHOD THEREFOR AND PHARMACEUTICAL USE THEREOF” (CHINA PHARMACEUTICAL UNIVERSITY, priority 2021, published 2024).

Assays:
MV4; 11 cells = assay: inhibiting the growth of MV4; 11 cells; format: cell-based; details: Homo sapiens
hClpP = target: T1, hClpP (Homo sapiens, UniProt Q16740); assay: activating ClpP hydrolysis of FITC-casein (fluorescence kinetic detection); format: biochemical; details: hClpP 1 μM, FITC-Casein 4 μM, 37° C.
T1 construct: made in house
T1 sequence (Q16740 57-277): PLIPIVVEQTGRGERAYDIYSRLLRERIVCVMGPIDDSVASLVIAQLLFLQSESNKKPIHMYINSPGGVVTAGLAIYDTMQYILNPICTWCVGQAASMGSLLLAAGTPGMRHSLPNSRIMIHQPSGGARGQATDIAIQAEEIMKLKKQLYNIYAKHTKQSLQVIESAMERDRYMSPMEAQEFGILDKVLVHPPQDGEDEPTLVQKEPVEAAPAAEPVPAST
Protocol: The specific procedures were as follows:
Test compounds were each prepared into a 100 mM stock solution in DMSO and stored. and 1 μL of stock solution of each of the compounds was taken and diluted to 10 mM by adding 9 μL of DMSO for later use.
The compounds of formula I of the present invention were each diluted at concentrations of 200 μM, 50 μM, 10 μM, 2 μM, 500 nM, 100 nM, 20 nM, and 2 nM in an assay buffer. 50 μL of each of the compounds at different concentrations was added to each well, with 2 replicate wells.
The protein was diluted to 4 μM in an assay buffer. 25 μL of protein was added to each well, and incubated at 37° C. for 30 min. The final concentration was 1 μM.
25 μL of FITC-Casein was added to each well. The final concentration was 4 μM. The mixture was immediately loaded on the machine for detection.
FITC-Casein and FITC-Casein+ClpP were used as negative controls.
The detection temperature was 37° C. The plate was shaken for 3 s. […] Kinetic parameters were set, and scanning was performed once every 1 min for 15 min.

Row | Structure (SMILES) | IC50 (MV4; 11 cells) [nM] | EC50 (hClpP) [nM]
1 | Cc1ncc(CN2CCc3c(c(=O)n(Cc4ccccc4)c4ncccc34)C2)s1 [Compound I-35, 6-benzyl-3-((2-methylthiazol-5-yl)methyl)-2,3,4,6-tetrahydropyrido[3,4-c][1,8]naphthyridine-5-(1H)-one] | 1000 to 10000 | 10000 to 100000
2 | Cc1ccccc1Cn1c(=O)c2c(c3cccnc31)CCN(Cc1ccccc1)C2 [Compound I-43, 3-benzyl-6-(2-methylbenzyl)-2,3,4,6-tetrahydropyrido[3,4-c][1,8]naphthyridine-5-(1H)-one] | < 1000 | 1000 to 10000
3 | Cc1ccc(Cn2c(=O)c3c(c4cccnc42)CCN(Cc2cccc(Cl)c2)C3)cc1 [Compound I-92, 6-(4-methylbenzyl)-3-(3-chlorobenzyl)-2,3,4,6-tetrahydropyrido[3,4-c][1,8]naphthyridine-5-(1H)-one] | < 1000 | < 1000
4 | COc1ccc(Cn2c(=O)c3c(c4cccnc42)CCN(Cc2cccc(Cl)c2)C3)cc1 [Compound I-100, 6-(4-methoxybenzyl)-3-(3-chlorobenzyl)-2,3,4,6-tetrahydropyrido[3,4-c][1,8]naphthyridine-5-(1H)-one] | < 1000 | < 1000
5 | N#Cc1cccc(CN2CCc3c(c(=O)n(Cc4ccc(C(F)(F)F)cc4)c4ncccc34)C2)c1 [Compound I-83, 6-(4-trifluoromethylbenzyl)-3-(3-cyanobenzyl)-2,3,4,6-tetrahydropyrido[3,4-c][1,8]naphthyridine-5-(1H)-one] | < 1000 | < 1000
6 | O=c1c2c(c3cccnc3n1Cc1ccc(Br)cc1)CCN(Cc1cccc(Br)c1)C2 [Compound I-79, 3-(3-bromobenzyl)-6-(4-bromobenzyl)-2,3,4,6-tetrahydropyrido[3,4-c][1,8]naphthyridine-5-(1H)-one] | < 1000 | < 1000
7 | Cn1cncc1CN1CCc2c(c(=O)n(Cc3ccccc3)c3ncccc23)C1 [Compound I-33, 6-benzyl-3-((1-methyl-1H-imidazol-5-yl)methyl)-2,3,4,6-tetrahydropyrido[3,4-c][1,8]naphthyridine-5-(1H)-one] | 1000 to 10000 | 10000 to 100000
8 | COc1ccc(Cn2c(=O)c3c(n4ccnc24)CCN(Cc2cccc(C#N)c2)C3)cc1 [Compound I-146, 7-(3-cyanobenzyl)-4-(4-methoxybenzyl)-6,7,8,9-tetrahydroimidazo[1,2-a]pyrido[3,4-e]pyrimidine-5(4H)-one] | < 1000 | < 1000
9 | Cc1ccccc1CN1CCc2c(c(=O)n(Cc3ccccc3)c3ncccc23)C1 [Compound I-9, 6-benzyl-3-(2-methylbenzyl)-2,3,4,6-tetrahydropyrido[3,4-c][1,8]naphthyridine-5-(1H)-one] | < 1000 | 1000 to 10000
10 | O=c1c2c(c3cccnc3n1Cc1ccccc1Br)CCN(Cc1ccccc1)C2 [Compound I-42, 3-benzyl-6-(2-bromobenzyl)-2,3,4,6-tetrahydropyrido[3,4-c][1,8]naphthyridine-5-(1H)-one] | < 1000 | 1000 to 10000
11 | Cn1cnc(CN2CCc3c(c(=O)n(Cc4ccccc4)c4ncccc34)C2)c1 [Compound I-32, 6-benzyl-3-((1-methyl-1H-imidazol-4-yl)methyl)-2,3,4,6-tetrahydropyrido[3,4-c][1,8]naphthyridine-5-(1H)-one] | 1000 to 10000 | 10000 to 100000
12 | O=c1c2c(c3cccnc3n1Cc1ccc(F)cc1)CCN(Cc1cccc(F)c1)C2 [Compound I-71, 3-(3-fluorobenzyl)-6-(4-fluorobenzyl)-2,3,4,6-tetrahydropyrido[3,4-c][1,8]naphthyridine-5-(1H)-one] | < 1000 | < 1000
13 | O=c1c2c(c3cccnc3n1Cc1ccc(F)cc1)CCN(Cc1cccc(Cl)c1)C2 [Compound I-72, 3-(3-chlorobenzyl)-6-(4-fluorobenzyl)-2,3,4,6-tetrahydropyrido[3,4-c][1,8]naphthyridine-5-(1H)-one] | < 1000 | < 1000
